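The compound was tested at five concentrations on cells cultured in 96-well plates, with a 48-hour exposure period. At the GI50, growth is halved. TGI: total growth inhibition.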 Where a SMILES comes first, the peptide text is derived from it. Bridges are numbered along the chain shown (N, C = ends). [ ]: non-standard residue; d: D form. aThr = C[C@H](O)[C@H](N)C(=O)O
Legend:
Assay in all cases: inhibition of tumour cell growth, NCI panel, 48 h
[1] = system: SNB-19 CNS
[2] = system: COLO 205 colon
[3] = system: HL-60(TB) leukemia
[4] = system: NCI-H460 lung
[5] = system: NCI-H522 lung
[6] = system: MALME-3M melanoma
[7] = system: HT29 colon
[8] = system: RXF 393 renal
[9] = system: PC-3 prostate
[10] = system: SR leukemia

SMILES	TGI [1] [µM]	TGI [2] [µM]	TGI [3] [µM]	TGI [4] [µM]	TGI [5] [µM]	TGI [6] [µM]	TGI [7] [µM]	TGI [8] [µM]	TGI [9] [µM]	TGI [10] [µM]	GI50 [1] [µM]	GI50 [9] [µM]	GI50 [2] [µM]	GI50 [3] [µM]	GI50 [4] [µM]	GI50 [5] [µM]	GI50 [6] [µM]	GI50 [7] [µM]	GI50 [8] [µM]	GI50 [10] [µM]
Nc1nc(=S)c2c(ncn2CCO)[nH]1	> 100	> 100	> 100	> 100	> 100	> 100	> 100	> 100												
Cc1ccc(S(=O)(=O)NCCCCC(N)C(=O)O)cc1 (centres undefined)	> 100	> 100		> 100	> 100	> 100	> 100	> 100	> 100											
O=[N+]([O-])c1ccc(-c2ccc(C3=Nn4c(CNc5ccccc5Cl)nnc4SC3)o2)cc1	> 100	> 100	> 100	> 100	> 100	> 100	> 100			> 100										
CC1NOC(=O)C1N=Nc1ccc(Cl)cc1Cl (centres undefined)	55.8	39	44.8	59.5	35.1	56.8	> 100	46.1		71.9										
O=C(O)CN(CCN(CC(=O)O)CC(=O)O)CC(=O)O.[Mn+2]	> 100	> 100	> 100	> 100	> 100	> 100	> 100	> 100	> 100		> 100	> 100	> 100	> 100	> 100	> 100	> 100	> 100	> 100	
CC(=O)Nc1ccc(C2CC(c3ccc([N+](=O)[O-])cc3)=Nc3ccccc3S2=O)cc1 (centres undefined)	> 100	44.9	42.2	47.9	34.7		59.1	32.3												
N#CC1CC(c2ccccc2)Nc2cc(Cl)ccc2N1 (centres undefined)	> 100	> 83.4	> 100	> 100	21.7	> 100	> 76.2	98.7		59.8										
CCc1cccc(CC)c1NC(=O)/C(Cl)=C(/Cl)C(=O)O	> 100	30.3	> 67.3	> 100	29.1	36.7	53.7	47.2		> 73.6										
CCOC(=O)C1=C(NC)OCC1=O	> 100	> 100	> 100	> 100	> 100	> 100	> 100	> 100												
[O]=[V]([OH])([OH])[OH]	> 100	> 100		> 100	> 100	> 100	> 100	> 100	> 100	> 100	> 100	> 100	> 100		> 100	> 100	> 100	> 100	> 100	36.3
COc1cc(/C=C/c2cc(/C=C/c3ccc(O)c(OC)c3)n(C(=O)c3ccccc3Br)n2)ccc1O	> 100	4.63	6	> 100	6.32	43.6			66.9		2.7	3.02	2.31	2.07	2.99	1.38	3.27			
COc1ccc(/C=C2\CCC/C(=C\c3ccc(OC)c(OC)c3)C2=O)cc1OC	> 32.5	> 32.5	> 32.5	> 32.5	15.4	> 32.5	> 32.5	3.18	> 32.5		20.8	2.83	1.46	2.25	1.61	2.19	8.51	1.34	0.613	
O=C1N[C@@H]2CCCC[C@@H]2C12CCCCC2	> 100		> 100	> 100		> 100	> 100	> 100		> 100										
CC(C)C[C@@H]1NC(=O)[C@@H]2CCCN2C(=O)[C@@H]2CCCN2C(=O)[C@H](CC(C)C)NC(=O)[C@H](CO)NC(=O)[C@H](CCCCN)NC(=O)[C@H]([C@H](C)O)NC(=O)[C@@H]2CSSC[C@@H](NC1=O)C(=O)N[C@@H](Cc1ccccc1)C(=O)N1CCC[C@H]1C(=O)N[C@@H](CC(=O)O)C(=O)NCC(=O)N[C@@H](CCCN=C(N)N)C(=O)N2 (cyclo(C[aThr]KSLPPL[dC]FPDGR); disulfide 1-9)	> 50	> 50		> 50	> 50	> 50	> 50	> 50	> 50		> 50	> 50	> 50		> 50	> 50	> 50	> 50	> 50	
CCc1ccc(Nc2cc(C)c3ccc(O)cc3n2)cc1	32.1	24.3	12.5	22		19	12.5	17.1	18.5		13	4.79	10.4	3.32	4.92		6.19	3.57	4.08	
COc1cc(/C=C2\NC(=O)C(Cc3cc(OC)c(OC)c(C)c3OC)N(C(C)=O)C2=O)c(OC)c(C)c1OC (centres undefined)	> 100	> 100	69.9	> 100	79.2	> 100	> 100	> 100		> 100										
ClCCOCCn1cnc2c(Cl)nc(Cl)nc21	30.5	27.5	> 100	19.2	50	28.2	73.6		31.5		16.4	14	13.2	4.08	5.57	20	13.1	19.6		
O=C(NCCc1ccccc1)C1C(=O)C(=O)N(CCc2ccccc2)C1=O (centres undefined)	> 100		> 100		> 100	> 100	> 100			> 100										
Cc1ccccc1C(CCCO)C(=O)O (centres undefined)	> 100	> 100	> 100	> 100	> 100	> 100	> 100	> 100												
CCCC(=O)CC(C)C(=O)C(=O)NC12CC3CC(CC(C3)C1)C2 (centres undefined)	> 100	> 100	> 100	> 100	> 100	> 100	> 100	> 100												

SMILES	TGI [1] [µM]	TGI [2] [µM]	TGI [3] [µM]	TGI [4] [µM]	TGI [5] [µM]	TGI [6] [µM]	TGI [7] [µM]	TGI [8] [µM]	TGI [9] [µM]	TGI [10] [µM]	GI50 [1] [µM]	GI50 [9] [µM]	GI50 [2] [µM]	GI50 [3] [µM]	GI50 [4] [µM]	GI50 [5] [µM]	GI50 [6] [µM]	GI50 [7] [µM]	GI50 [8] [µM]	GI50 [10] [µM]
O=NN(CCCl)C(=O)NC1CCC(CC(=O)O)CC1 (centres undefined)	> 100	> 100	> 100	> 100	> 100	> 100	> 100	> 100		> 100										
COc1ccc(-c2nc3ccc(Cc4ccc5nc(-c6ccc(OC)cc6)[nH]c5c4)cc3[nH]2)cc1	5.8	0.184	0.079	0.122	0.0535		0.11		1.2		0.0469	0.0428	< 0.01	< 0.0145	0.0335	0.0171		< 0.01		
O=C(CCCC(=O)Nc1ccc(Cl)cc1Cl)CC(=O)c1ccc2ccccc2c1	> 100	> 100	> 100	> 100		> 100	> 100	> 100												
N#Cc1ccc(Sc2nc3ccccc3[nH]2)cc1	> 100	> 100	> 100	> 100	> 100	> 100	> 100	> 100		> 100										
OC(c1ccccc1Br)(c1ccccc1Br)C(F)(F)F		33.1		> 100	26.1	52.3	38.3	34.5		45.9										
CC(=O)[CH-]C(=O)c1ccccc1.[C-]#[O+].[C-]#[O+].[Ir]	> 100	> 100	> 100	> 10		> 100	> 10	> 100			> 100		> 100	> 100	> 10		> 100	> 10	> 100	
COc1ccccc1Oc1nccc(-c2c(-c3ccc(F)cc3)ncn2C2CCNCC2)n1	> 25	> 19.9	> 25	> 25	> 25	> 25	> 25	> 25	> 25		> 25	> 20.9	7.37	> 23.3	> 25	> 25	> 25	8.72	8.67	
CC(=O)Oc1c(C(=O)[O-])cc(C(C)C)cc1C(C)C.CC(=O)Oc1c(C(=O)[O-])cc(C(C)C)cc1C(C)C.CC(=O)Oc1c(C(=O)[O-])cc(C(C)C)cc1C(C)C.CC(=O)Oc1c(C(=O)[O-])cc(C(C)C)cc1C(C)C.[Cu+2].[Cu+2]	61.7	42.5	81.9	> 100	33.3		> 100		> 100		26.3	57.3	21	22.7	34.8	18.5		37.5		
CN1CCN(c2c(F)cc(NC3=C(Cl)C(=O)c4ncccc4C3=O)cc2F)CC1	31.1	4.82	4.99	36	3.82	2.97	22.5	3.31	21.1		17.1	5.87	2.14	1.33	18.1	1.43	1.59	4.67	1.67	
CC(=O)OCC(=O)[C@@]1(O)CC[C@H]2[C@@H]3C[C@H](C)C4=CC(=O)C=C[C@]4(C)[C@@]3(F)[C@@H](O)C[C@@]21C	> 100	> 100	> 100	> 100	> 100	> 100	> 100	> 100		> 100										
COc1cc(OC)c(OC)cc1/C=C/c1nc2ccccc2s1	> 100	> 100	> 100	> 100	> 100	> 100	> 100	> 100	> 100											
C[C@H](C(=O)O)C(=O)NC(=O)N(Cc1ccccc1)N=O	> 100	> 100		> 100		> 100	> 100													
COc1ccc(Nc2cnc3cc(N)cc(N)c3n2)cc1	> 100	> 100	73.7	53.5	43.6	39.4		39.6	27.9		32.8	14.7	30.5	5.49	21.9	16.6	15.2		17.6	
c1ccc(C(c2ccccc2)c2ccccn2)cc1	> 100	> 100		> 100		> 100	> 100													
COc1ccc2c(C(=O)O)cc3ccccc3c2c1OC	> 100	44.2	> 100		26.8	41.9	48.9	28.6		> 100										
Cc1cccc(Cn2cc(CO)c3cnccc32)c1	> 100	> 100		> 100	> 100	> 100	> 100	> 100	> 100		> 100	28.2	> 100		57.5	60.3	64.6	67.2	> 100	
O=C1C2C3C=CC(C2C(=O)N1CO)C1C2C(=O)N(CO)C(=O)C2C31 (centres undefined)	> 100	> 66.9		> 54.5	> 100	> 100	> 100	> 100		45										
COc1ccc2nc(NC(=O)C(=O)CC(=O)c3ccc([N+](=O)[O-])cc3)sc2c1	> 100	> 100		> 100	> 100	> 100	> 100													
COC(=O)C1=C(C(=O)OC)C2(c3ccccc3)OC1(c1ccccc1)c1cc3ccccc3cc12	15.5	4.18	1.84	11.9		3.19	3.49	2.57												
